Patent publication US10738035B2, “Hepatitis B antiviral agents” (Enanta Pharmaceuticals, Inc., priority 2015, dated 2020)

Experiments:
[1] = Compound toxicity, ATPLite (CC50); conditions: human, HepAD38 cells
Description: (§1) Briefly, cells are passaged upon attaining confluency in DMEM/F12 media in the presence of 10% FBS, Penn/Strep, 250 μg/mL G418, and 1 μg/ml tetracycline. Novel compounds are screened by first washing cells three times with PBS to remove tetracycline, and plating in 96 well plates at 35,000 cells/well. Compounds dissolved in DMSO are then diluted 1:200 into wells containing cells. Five days after compound addition, material is harvested for analysis.
Compound toxicity is evaluated by seeding cells at 15,000 cells/well and treating with compound as described above.

[2] = tested on: hepatitis B virus (HBV); assay: HepAD38 antiviral assay (viral product accumulation, EC50); conditions: HePAD38, 120 h, read-out: HepAD38 EC50
Description: as §1
On harvest day, virion DNA is obtained by lysing with Sidestep Lysis and Stabilization Buffer and then quantified via quantitative real time PCR. Commercially available ELISA kits are used to quantitate the viral proteins HBsAg (Alpco) or HbeAg (US Biological) by following the manufacturer's recommended protocol after diluting samples to match the linear range of their respective assays.

Compound	CC50 at 3 days [1] [µM]	EC50 [2] [µM]
Cn1nc(NC(=O)N2CCC(O)CC2)cc1C(=O)Nc1ccc(-c2ccccc2)cc1 [Example 70]	> 30	> 10
O=C(Nc1cc(F)c(F)c(F)c1)c1ccc(Cl)c(NS(=O)(=O)N2CCC(O)CC2)c1 [Example 71]	> 30	1 to 10
COC(=O)c1ccc(NC(=O)c2cc(NC(=O)N3CCC(O)CC3)nn2C)cc1 [Example 72]	> 30	> 10
COC(=O)c1cccc(NC(=O)c2cc(NC(=O)N3CCC(O)CC3)nn2C)c1 [Example 73]	> 30	> 10
Cn1nc(NC(=O)N2CCC(O)CC2)cc1C(=O)Nc1ccc(C(=O)O)cc1 [Example 74]	> 30	> 10
